Among the test systems are CAKI-1; CCRF-CEM; HCC 2998; HCT-116; HCT-15; HOP-62; IGROV-1; Malme-3M; NCI-H522; OVCAR-3; OVCAR-4; OVCAR-5; RXF 393; SK-MEL-5; UACC-257; DU-145; MDA-MB-231; NCI/ADR-RES; T47D.
Holding throughout (test): NCI tumour cell line growth inhibition, 48 h

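Protocol summary: plate cells (96-well), add compound at 5 concentrations, incubate 48 h, interpolate endpoints linearly. GI50 = concentration required for 50% inhibition of growth.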 Activity calls are given as the source filed them. No stated cut-off is given here; in the data, active = GI50 up to about 1.1 µM and inactive = higher. A value given as a limit tells only on which side of the number the result lay.

The text below walks through data of ChEMBL document CHEMBL1201862, “PubChem BioAssay data set” (2004).

As for `CCOP(=O)(OCC)OC1C=CC2CCC1C2` (configuration not stated), the GI50 in the experiment with CAKI-1 was > 100 µM (inactive); with CCRF-CEM, > 100 µM (inactive); with HCC 2998, > 100 µM (inactive); in the experiment on HCT-116, > 100 µM (inactive); in the experiment with HCT-15 it was 20.7 µM; in the experiment with HOP-62, > 100 µM (inactive). Further, the GI50 with IGROV-1, in the experiment with Malme-3M, in the experiment with NCI-H522, with OVCAR-3, with OVCAR-4 and with OVCAR-5 was > 100 µM (inactive) each time. The GI50 in the experiment on RXF 393, with SK-MEL-5 and with UACC-257 was > 100 µM (inactive) throughout.

Regarding `C/C=C/C1(C)/C(=N\O)C(C)(CCC)C(=O)N1O` (configuration not stated), the GI50 in the experiment with CAKI-1 is > 100 µM (inactive); in the experiment on CCRF-CEM, > 100 µM (inactive); in the experiment with HCC 2998, > 100 µM (inactive); in the experiment with HCT-116, > 100 µM (inactive); in the experiment with HCT-15 it was more than 100 µM; in the experiment on HOP-62 it was > 100 µM (inactive). In addition, the GI50 in the experiment on IGROV-1, with Malme-3M, in the experiment on NCI-H522, in the experiment on OVCAR-3, in the experiment on OVCAR-4 and with OVCAR-5 was > 100 µM (inactive) throughout. Also, the GI50 in the experiment with RXF 393, with SK-MEL-5 and in the experiment with UACC-257 was > 100 µM (inactive) in each case.

As for `[O-][S+](Nc1ccccc1)c1ccccc1Oc1ccccc1` (configuration not stated), the GI50 was 39.8 µM (inactive) in the experiment with CAKI-1; 32.5 µM (inactive) in the experiment on CCRF-CEM; > 100 µM (inactive) with DU-145; 24.3 µM (inactive) in the experiment on HCC 2998; 34.1 µM (inactive) with HCT-116; 27.7 µM with HCT-15. Besides, the GI50 is 32.7 µM (inactive) in the experiment with HOP-62; 2.62 µM (inactive) in the experiment with IGROV-1; 36.2 µM (inactive) in the experiment with MDA-MB-231; 30.5 µM (inactive) in the experiment on Malme-3M; 25 µM (inactive) with NCI-H522; 27.5 µM (inactive) in the experiment with NCI/ADR-RES. Also, the GI50 was 92.9 µM (inactive) in the experiment with OVCAR-3; > 100 µM (inactive) in the experiment on OVCAR-5; 48.2 µM (inactive) with RXF 393; 30.5 µM (inactive) in the experiment on SK-MEL-5; 51.2 µM (inactive) in the experiment with UACC-257.

Take `O=C1C=CC(=CC=C2C=CN(CCCCCCCCCCC(=O)NCCCCCCCCCCCC(=O)O)C=C2)C=C1`: the GI50 is > 100 µM (inactive) in the experiment with CAKI-1; > 100 µM (inactive) in the experiment with CCRF-CEM; > 100 µM (inactive) in the experiment with HCC 2998; > 100 µM (inactive) in the experiment on HCT-116; more than 100 µM in the experiment with HCT-15; > 100 µM (inactive) with HOP-62. For the same compound, the GI50 with IGROV-1, in the experiment on Malme-3M, with NCI-H522, in the experiment with OVCAR-3, with OVCAR-4 and in the experiment with OVCAR-5 was > 100 µM (inactive) throughout. Besides, the GI50 in the experiment on RXF 393, in the experiment on SK-MEL-5 and in the experiment with UACC-257 was > 100 µM (inactive) each time.

In the case of `COC(=O)CN1CCN(c2cccc3c2CCCC3)CC1`, the GI50 in the experiment on CAKI-1 is > 100 µM (inactive); in the experiment with CCRF-CEM, 47.9 µM (inactive); in the experiment on HCC 2998, 29.6 µM (inactive); with HCT-116, 32.4 µM (inactive); in the experiment on HCT-15, more than 100 µM; in the experiment on HOP-62, > 100 µM (inactive). Also, the GI50 in the experiment on IGROV-1 is > 100 µM (inactive); with MDA-MB-231, 71.9 µM (inactive); in the experiment with Malme-3M it was 24.5 µM (inactive); in the experiment with NCI-H522, 67.6 µM (inactive); in the experiment with NCI/ADR-RES it was 24.5 µM (inactive); in the experiment with OVCAR-3, 19.9 µM (inactive). Moreover, the GI50 with OVCAR-4 was 52.8 µM (inactive); in the experiment on OVCAR-5 it was 48.9 µM (inactive); in the experiment on RXF 393 it was > 100 µM (inactive); in the experiment on SK-MEL-5, 23.2 µM (inactive); in the experiment with T47D, 98.2 µM (inactive); in the experiment with UACC-257 it was 50.6 µM (inactive).

As to `NC1=C(N2CCOCC2)C(=O)NC2=N/C(=C\c3ccccc3O)C(=O)N21`, the GI50 in the experiment on CAKI-1 was > 100 µM (inactive); with CCRF-CEM, > 100 µM (inactive); in the experiment with DU-145 it was > 100 µM (inactive); in the experiment on HCC 2998, 95.7 µM (inactive); in the experiment with HCT-116, > 100 µM (inactive); with HCT-15, 51.1 µM. Moreover, the GI50 was > 100 µM (inactive) with IGROV-1; > 100 µM (inactive) with MDA-MB-231; 84.3 µM (inactive) with Malme-3M; 76.2 µM (inactive) in the experiment with NCI-H522; > 100 µM (inactive) in the experiment on NCI/ADR-RES; 13.5 µM (inactive) in the experiment with OVCAR-4. Also, the GI50 in the experiment on OVCAR-5 is > 100 µM (inactive); with RXF 393, > 100 µM (inactive); in the experiment on SK-MEL-5, 73.6 µM (inactive); with T47D, 51.2 µM (inactive); with UACC-257 it was > 100 µM (inactive).

As to `O=C(OC(=O)n1ccc2ccccc21)n1ccc2ccccc21`, the GI50 was > 96.4 µM (inactive) with CAKI-1; > 100 µM (inactive) with CCRF-CEM; > 100 µM (inactive) in the experiment on HCC 2998; > 100 µM (inactive) in the experiment with HCT-116; more than 100 µM in the experiment on HCT-15; > 100 µM (inactive) with HOP-62. Besides, the GI50 in the experiment on IGROV-1, in the experiment with NCI/ADR-RES, in the experiment on OVCAR-3, in the experiment on OVCAR-4, in the experiment on OVCAR-5 and in the experiment on RXF 393 was > 100 µM (inactive) in each case. The GI50 with SK-MEL-5 and in the experiment with UACC-257 was > 100 µM (inactive) throughout.

Turning to `CCCNCCCC(NC(C)=O)C(=O)NCc1ccccc1` (configuration not stated), the GI50 with CAKI-1 is > 100 µM (inactive); in the experiment with CCRF-CEM, > 100 µM (inactive); in the experiment with HCC 2998 it was > 100 µM (inactive); in the experiment on HCT-116, > 100 µM (inactive); with HCT-15, more than 100 µM; with HOP-62 it was > 100 µM (inactive). The GI50 in the experiment with IGROV-1, in the experiment on Malme-3M, with NCI-H522, with OVCAR-3, with OVCAR-4 and with OVCAR-5 was > 100 µM (inactive) in each case. For the same compound, the GI50 in the experiment on RXF 393, in the experiment on SK-MEL-5 and with UACC-257 was > 100 µM (inactive) throughout.

Take `CCOc1ccccc1NC(=O)CCC(=O)OC`: the GI50 with CAKI-1 was > 100 µM (inactive); in the experiment with CCRF-CEM it was > 45.6 µM (inactive); with HCC 2998 it was > 100 µM (inactive); in the experiment on HCT-116, > 100 µM (inactive); with HCT-15 it was more than 74.5 µM; with HOP-62, > 100 µM (inactive). For the same compound, the GI50 in the experiment on IGROV-1, with Malme-3M, with NCI-H522, in the experiment on OVCAR-3, in the experiment on OVCAR-4 and with OVCAR-5 was > 100 µM (inactive) each time. Also, the GI50 in the experiment on RXF 393, in the experiment with SK-MEL-5 and in the experiment with UACC-257 was > 100 µM (inactive) each time.

Turning to `NC(=O)N/N=C1/CCCC/C1=C\c1ccccc1`, the GI50 was > 100 µM (inactive) in the experiment with CAKI-1; > 100 µM (inactive) with CCRF-CEM; > 100 µM (inactive) in the experiment with HCC 2998; > 100 µM (inactive) with HCT-116; more than 100 µM in the experiment on HCT-15; > 100 µM (inactive) with HOP-62. Also, the GI50 in the experiment on IGROV-1, in the experiment on Malme-3M, in the experiment on NCI-H522, in the experiment on OVCAR-3, in the experiment on OVCAR-4 and with OVCAR-5 was > 100 µM (inactive) in each case. Also, the GI50 with RXF 393, with SK-MEL-5 and in the experiment on UACC-257 was > 100 µM (inactive) throughout.

Consider `CN1C(=O)NC(=O)/C(=C\Nc2ncccn2)C1=O`, for which the GI50 in the experiment on CAKI-1 was > 100 µM (inactive); in the experiment on DU-145, > 100 µM (inactive); in the experiment with HCT-116, > 100 µM (inactive); in the experiment with HCT-15, more than 100 µM; in the experiment with HOP-62, > 100 µM (inactive); in the experiment with IGROV-1 it was > 100 µM (inactive). In addition, the GI50 in the experiment with MDA-MB-231, in the experiment on Malme-3M, in the experiment with NCI-H522, in the experiment with NCI/ADR-RES, in the experiment with OVCAR-3 and in the experiment with OVCAR-4 was > 100 µM (inactive) each time. Moreover, the GI50 in the experiment with OVCAR-5, in the experiment on SK-MEL-5, in the experiment with T47D and in the experiment on UACC-257 was > 100 µM (inactive) each time.

Consider `N#C/C(=C\c1ccccc1)C(NO)Nc1ccccc1` (configuration not stated), for which the GI50 in the experiment with CAKI-1 was 86.5 µM (inactive); with CCRF-CEM, 31.7 µM (inactive); in the experiment with HCC 2998 it was > 100 µM (inactive); with HCT-116 it was 40.7 µM (inactive); in the experiment with HCT-15, 79.8 µM; in the experiment on HOP-62 it was > 100 µM (inactive). In addition, the GI50 in the experiment with IGROV-1 is 57.3 µM (inactive); with Malme-3M it was > 100 µM (inactive); with NCI-H522, 35.3 µM (inactive); in the experiment with OVCAR-3, 48.2 µM (inactive); in the experiment with OVCAR-4, 84.3 µM (inactive); with OVCAR-5, > 100 µM (inactive). Besides, the GI50 in the experiment on RXF 393 was 41.5 µM (inactive); in the experiment on SK-MEL-5, 53.6 µM (inactive); with UACC-257 it was > 100 µM (inactive).

On to `O=C(CC(=O)C1CCOC1=O)C(=O)Nc1ccc(Cl)cc1Cl` (configuration not stated), for which the GI50 is > 100 µM (inactive) in the experiment on CAKI-1; > 100 µM (inactive) in the experiment with CCRF-CEM; > 100 µM (inactive) in the experiment with HCC 2998; > 100 µM (inactive) with HCT-116; more than 100 µM with HCT-15; > 100 µM (inactive) with HOP-62. Moreover, the GI50 in the experiment with IGROV-1, in the experiment with Malme-3M, in the experiment with NCI-H522, with OVCAR-3, in the experiment with OVCAR-4 and with OVCAR-5 was > 100 µM (inactive) each time. Further, the GI50 in the experiment on RXF 393, in the experiment on SK-MEL-5 and in the experiment with UACC-257 was > 100 µM (inactive) in each case.
